{"source": "patent US7495021B2", "about": "“Benzothiazole- and benzooxazole-4,7-dione, derivatives and their use as cdc25 phosphate inhibitors” (Societe de Conseils de Recherches et d'Applications …, priority 2001, dated 2009)", "key": {"[1]": {"test_system": "DU145 (human prostate cancer cells)", "assay": "Antiproliferative activity, WST1 colorimetric test, DU145", "assay_type": "cell-based", "details": "DU-145, 96 hours treatment, up to 10 μM, read-out: Cl50 on the cell proliferation of the lines DU-145", "procedure": "(§1) iii) Characterization of the Antiproliferative Activity:\n(§2) By way of example, the effect of a treatment on two human cell lines Mia-Paca2 and DU145 by the compounds of the examples described previously will be studied. The cell lines DU145 (human prostate cancer cells) and Mia-PaCa2 (human pancreas cancer cells) were acquired from the American Tissue Culture Collection (Rockville, Md., USA). The cells placed in 80 μl of Dulbecco's Modified Eagle's medium (Gibco-Brl, Cergy-Pontoise, France) completed with 10% foetal calf serum inactivated by heating (Gibco-Brl, Cergy-Pontoise, France), 50,000 units/l of penicillin and 50 mg/l of streptomycin (Gibco-Brl, 10378-057, Cergy-Pontoise, France), and 2 mM of glutamine (Gibco-Brl, Cergy-Pontoise, France) were seeded on a 96-well plate on day 0. The cells were treated on day 1 for 96 hours with increasing concentrations of each of the compounds to be tested up to 10 μM. At the end of this period, quantification of cell proliferation is evaluated by a colorimetric test based on the cleavage of the tetrazolium salt WST1 by the mitochondrial dehydrogenases in viable cells leading to the formation of formazan (Boehringer Mannheim, Meylan, France). These tests are carried out in duplicate with 8 determinations per concentration tested. For each compound to be tested, the values included in the linear part of the sigmoid were retained for a linear regression analysis and used to estimate the inhibitory concentration IC50. The products are solubilized in dimethylsulphoxide (DMSO) at 10^−2 M and used in culture with 0.1% DMSO final."}, "[2]": {"test_system": "Mia-PaCa2 (human pancreas cancer cells)", "assay": "Antiproliferative activity, WST1 colorimetric test, Mia-PaCa2", "assay_type": "cell-based", "details": "MIA PaCa-2, 96 hours treatment, up to 10 μM, read-out: CI50 on the cell proliferation of the lines Mia-Paca2", "procedure": "as §1, §2"}}, "note": "Counter-ions that a name gives are not always drawn."}
{"molecule": "Cc1nc2c(s1)C(=O)C=C(N(CCN(C)C)Cc1ccccc1)C2=O", "note": "[Example 29, 5-{benzyl[2-(dimethylamino)ethyl]amino}-2-methyl-1,3-benzothiazole-4,7-dione]", "values": [{"measurement": "IC50", "setting": "[1]", "result": "≤ 10", "unit": "µM"}]}
{"molecule": "Cc1nc2c(s1)C(=O)C=C(NCCCN(C)C(=O)OC(C)(C)C)C2=O", "note": "[Example 30, tert-butyl methyl{3-[(2-methyl-4,7-dioxo-4,7-dihydro-1,3-benzothiazole-5-yl)amino]propyl}carbamate]", "values": [{"measurement": "IC50", "setting": "[1]", "result": "≤ 10", "unit": "µM"}]}
{"molecule": "Cc1nc2c(s1)C(=O)C=C(NCCCCCN(C)C)C2=O", "note": "[Example 27, 5-{[5-(dimethylamino)pentyl]amino}-2-methyl-1,3-benzothiazole-4,7-dione]", "values": [{"measurement": "IC50", "setting": "[1]", "result": "≤ 10", "unit": "µM"}]}
{"molecule": "CN(C)CCNC1=CC(=O)c2sc(CN3CCN(c4ccccc4)CC3)nc2C1=O", "note": "[Example 38]", "values": [{"measurement": "IC50", "setting": "[1]", "result": "≤ 10", "unit": "µM"}]}
{"molecule": "Cc1nc2c(s1)C(=O)C=C(NCCCCCCN(C)C)C2=O", "note": "[Example 3, 5-{[6-(dimethylamino)hexyl]amino}-2-methyl-1,3-benzothiazole-4,7-dione]", "values": [{"measurement": "IC50", "setting": "[1]", "result": "≤ 10", "unit": "µM"}]}
{"molecule": "Cc1nc2c(s1)C(=O)C=C(NCCCN)C2=O", "note": "[Example 33, 5-[(3-aminopropyl)amino]-2-methyl-1,3-benzothiazole-4,7-dione]", "values": [{"measurement": "IC50", "setting": "[2]", "result": "≤ 10", "unit": "µM"}, {"measurement": "IC50", "setting": "[1]", "result": "≤ 10", "unit": "µM"}]}
{"molecule": "Cc1nc2c(s1)C(=O)C=C(NCCC1CCCN1C)C2=O", "note": "(stereo not shown) [Example 24, 2-methyl-5-{[2-(1-methylpyrrolidin-2-yl)ethyl]amino}-1,3-benzothiazole-4,7-dione]", "values": [{"measurement": "IC50", "setting": "[1]", "result": "≤ 10", "unit": "µM"}]}
{"molecule": "CCc1nc2c(o1)C(=O)C=C(Nc1ccccc1)C2=O", "note": "[Example 15, 5-anilino-2-ethyl-4,7-dihydrobenzo[d][1,3]oxazole-4,7-dione]", "values": [{"measurement": "IC50", "setting": "[2]", "result": "≤ 10", "unit": "µM"}, {"measurement": "melting point", "result": 200, "unit": "°C"}, {"measurement": "IC50", "setting": "[1]", "result": "≤ 10", "unit": "µM"}]}
{"molecule": "CCc1nc2c(o1)C(=O)C(C)=C(NCCN(C)C)C2=O", "note": "[Example 55, 5-{[2-(dimethylamino)ethyl]amino}-2-ethyl-6-methyl-1,3-benzoxazole-4,7-dione]", "values": [{"measurement": "melting point", "result": 135, "unit": "°C"}, {"measurement": "IC50", "setting": "[1]", "result": "≤ 10", "unit": "µM"}]}
{"molecule": "Cc1nc2c(s1)C(=O)C=C(NCCN(C)C)C2=O", "note": "[Example 2, 5-{[2-(dimethylamino)ethyl]amino}-2-methyl-1,3-benzothiazole-4,7-dione hydrochloride]", "values": [{"measurement": "IC50", "setting": "[1]", "result": "≤ 10", "unit": "µM"}]}
{"molecule": "Cc1nc2c(s1)C(=O)C=C(NCCCN1CCCCC1C)C2=O", "note": "(stereo not shown) [Example 25, 2-methyl-5-{[3-(2-methylpiperidin-1-yl)propyl]amino}-1,3-benzothiazole-4,7-dione]", "values": [{"measurement": "IC50", "setting": "[1]", "result": "≤ 10", "unit": "µM"}]}
{"molecule": "Cc1nc2c(s1)C(=O)C=C(NCc1cccs1)C2=O", "note": "[Example 8, 2-methyl-5-[(2-thienylmethyl)amino]-1,3-benzothiazole-4,7-dione]", "values": [{"measurement": "IC50", "setting": "[1]", "result": "≤ 10", "unit": "µM"}]}
{"molecule": "CCc1nc2c(o1)C(=O)C(Cl)=C(Nc1ccccc1)C2=O", "note": "[Example 16, 5-anilino-6-chloro-2-ethyl-1,3-benzoxazole-4,7-dione]", "values": [{"measurement": "IC50", "setting": "[2]", "result": "≤ 10", "unit": "µM"}, {"measurement": "melting point", "result": 159, "unit": "°C"}, {"measurement": "IC50", "setting": "[1]", "result": "≤ 10", "unit": "µM"}]}
{"molecule": "Cc1nc2c(s1)C(=O)C=C(NCC13CC4CC(CC(C4)C1)C3)C2=O", "note": "[Example 7, 5-[(1-adamantylmethyl)amino]-2-methyl-1,3-benzothiazole-4,7-dione]", "values": [{"measurement": "IC50", "setting": "[1]", "result": "≤ 10", "unit": "µM"}]}
{"molecule": "Cc1nc2c(s1)C(=O)C=C(NCCN1CCCC1)C2=O", "note": "[Example 19, 2-methyl-5-[(2-pyrrolidin-1-ylethyl)amino]-1,3-benzothiazole-4,7-dione]", "values": [{"measurement": "IC50", "setting": "[1]", "result": "≤ 10", "unit": "µM"}]}
{"molecule": "Cc1nc2c(s1)C(=O)C=C(NCCCCN(C)C)C2=O", "note": "[Example 26, 5-{[4-(dimethylamino)butyl]amino}-2-methyl-1,3-benzothiazole-4,7-dione]", "values": [{"measurement": "IC50", "setting": "[1]", "result": "≤ 10", "unit": "µM"}]}
{"molecule": "Cc1nc2c(s1)C(=O)C=C(NCCN(C(C)C)C(C)C)C2=O", "note": "[Example 21, 5-{[2-(diisopropylamino)ethyl]amino}-2-methyl-1,3-benzothiazole-4,7-dione]", "values": [{"measurement": "IC50", "setting": "[1]", "result": "≤ 10", "unit": "µM"}]}
{"molecule": "CCCCCC(CC)NC1=CC(=O)c2sc(C)nc2C1=O", "note": "(stereo not shown) [Example 6, 5-[(1-ethylhexyl)amino]-2-methyl-1,3-benzothiazole-4,7-dione]", "values": [{"measurement": "IC50", "setting": "[1]", "result": "≤ 10", "unit": "µM"}]}
{"molecule": "CCCCSC1=C(NCCN(C)C)C(=O)c2nc(C)sc2C1=O", "note": "[Example 36, 6-(butylthio)-5-{[2-(dimethylamino)ethyl]amino}-2-methyl-1,3-benzothiazole-4,7-dione]", "values": [{"measurement": "IC50", "setting": "[1]", "result": "≤ 10", "unit": "µM"}]}
{"molecule": "Cc1nc2c(s1)C(=O)C=C(NC1CCc3ccccc31)C2=O", "note": "(stereo not shown) [Example 28, 5-(2,3-dihydro-1H-inden-1-ylamino)-2-methyl-1,3-benzothiazole-4,7-dione]", "values": [{"measurement": "IC50", "setting": "[1]", "result": "≤ 10", "unit": "µM"}]}
{"molecule": "COCCNC1=CC(=O)c2sc(C)nc2C1=O", "note": "[Example 18, 5-[(2-methoxyethyl)amino]-2-methyl-1,3-benzothiazole-4,7-dione]", "values": [{"measurement": "IC50", "setting": "[1]", "result": "≤ 10", "unit": "µM"}]}
{"molecule": "Cc1nc2c(s1)C(=O)C=C(NC1CCN(Cc3ccccc3)C1)C2=O", "note": "(stereo not shown) [Example 22, 5-[(1-benzylpyrrolidin-3-yl)amino]-2-methyl-1,3-benzothiazole-4,7-dione]", "values": [{"measurement": "IC50", "setting": "[1]", "result": "≤ 10", "unit": "µM"}]}
{"molecule": "Cc1nc2c(s1)C(=O)C=C(NCCN1CCCCC1)C2=O", "note": "[Example 20, 2-methyl-5-[(2-piperidin-1-ylethyl)amino]-1,3-benzothiazole-4,7-dione]", "values": [{"measurement": "IC50", "setting": "[1]", "result": "≤ 10", "unit": "µM"}]}
{"molecule": "CN(C)CCNC1=CC(=O)c2sc(CN3CCCCC3)nc2C1=O", "note": "[Example 39, 5-{[2-(dimethylamino)ethyl]amino}-2-(piperidin-1-ylmethyl)-1,3-benzothiazole-4,7-dione]", "values": [{"measurement": "IC50", "setting": "[1]", "result": "≤ 10", "unit": "µM"}]}
{"molecule": "Cc1nc2c(s1)C(=O)C=C(NCC(C)(C)CN(C)C)C2=O", "note": "[Example 4, 5-{[3-(dimethylamino)-2,2-dimethylpropyl]amino}-2-methyl-1,3-benzothiazole-4,7-dione]", "values": [{"measurement": "IC50", "setting": "[1]", "result": "≤ 10", "unit": "µM"}]}
{"molecule": "CCc1nc2c(o1)C(=O)C=C(Nc1ccc(F)cc1)C2=O", "note": "[Example 17, 2-ethyl-5-[(4-fluorophenyl)amino]-1,3-benzoxazole-4,7-dione]", "values": [{"measurement": "IC50", "setting": "[2]", "result": "≤ 10", "unit": "µM"}, {"measurement": "melting point", "result": 232, "unit": "°C"}, {"measurement": "IC50", "setting": "[1]", "result": "≤ 10", "unit": "µM"}]}
{"molecule": "Cc1nc2c(s1)C(=O)C=C(N1CCN(Cc3ccccc3)CC1)C2=O", "note": "[Example 14, 5-(4-benzyl-1-piperazinyl)-2-methyl-1,3-benzothiazole-4,7-dione]", "values": [{"measurement": "IC50", "setting": "[1]", "result": "≤ 10", "unit": "µM"}]}
{"molecule": "CN(C)CCNC1=CC(=O)c2sc(CN3CCOCC3)nc2C1=O", "note": "[Example 37, 5-{[2-(dimethylamino)ethyl]amino}-2-(morpholin-4-ylmethyl)-1,3-benzothiazole-4,7-dione]", "values": [{"measurement": "IC50", "setting": "[1]", "result": "≤ 10", "unit": "µM"}]}
{"molecule": "Cc1nc2c(s1)C(=O)C=C(NCc1cccc(Cl)c1)C2=O", "note": "[Example 9, 5-[(3-chlorobenzyl)amino]-2-methyl-1,3-benzothiazole-4,7-dione]", "values": [{"measurement": "IC50", "setting": "[1]", "result": "≤ 10", "unit": "µM"}]}
{"molecule": "CNCCCNC1=CC(=O)c2sc(C)nc2C1=O", "note": "[Example 32, 2-methyl-5-{[3-(methylamino)propyl]amino}-1,3-benzothiazole-4,7-dione hydrochloride]", "values": [{"measurement": "IC50", "setting": "[1]", "result": "≤ 10", "unit": "µM"}]}
{"molecule": "Cc1nc2c(s1)C(=O)C=C(NCCCN(C)C)C2=O", "note": "[Example 23, 5-{[3-(dimethylamino)propyl]amino}-2-methyl-1,3-benzothiazole-4,7-dione]", "values": [{"measurement": "IC50", "setting": "[1]", "result": "≤ 10", "unit": "µM"}]}
{"molecule": "Cc1nc2c(s1)C(=O)C=C(NCCCN1CCN(C)CC1)C2=O", "note": "[Example 5, 2-methyl-5-{[3-(4-methyl-1-piperazinyl)propyl]amino}-1,3-benzothiazole-4,7-dione]", "values": [{"measurement": "IC50", "setting": "[1]", "result": "≤ 10", "unit": "µM"}]}
{"molecule": "Cc1nc2c(s1)C(=O)C(Cl)=C(NCCN(C)C)C2=O", "note": "[Example 34]", "values": [{"measurement": "IC50", "setting": "[1]", "result": "≤ 10", "unit": "µM"}]}
{"molecule": "Cc1nc2c(s1)C(=O)C=C(NCCCNC(=O)OC(C)(C)C)C2=O", "note": "[Example 31, tert-butyl 3-[(2-methyl-4,7-dioxo-4,7-dihydro-1,3-benzothiazol-5-yl)amino]propylcarbamate]", "values": [{"measurement": "IC50", "setting": "[1]", "result": "≤ 10", "unit": "µM"}]}
{"molecule": "Cc1nc2c(s1)C(=O)C=C(NCCN1CCOCC1)C2=O", "note": "[Example 1, 2-methyl-5-{[2-(4-morpholinyl)ethyl]amino}-1,3-benzothiazole-4,7-dione]", "values": [{"measurement": "IC50", "setting": "[1]", "result": "≤ 10", "unit": "µM"}]}
